Experimental data as given in patent US11753395B2 (Kinnate Biopharma Inc., priority 2021, dated 2023).

Tests used:
MET = target: T1, MET (Homo sapiens, UniProt P08581); assay: MET Mobility Shift Assay; settings: biochemical assay IC50; 100 μM ATP, 60 minute kinase reaction
T1 construct: purchased Carna Biosciences 08-151
Experimental: (§1) Small molecule inhibition of MET kinase activity was evaluated using a fluorescence-based microfluidic mobility shift assay. MET catalyzes the production of ADP from ATP during phosphoryl transfer to the substrate peptide, FLPeptide30 (5-FAM-KKKKEEIYFFF-CONH2) (Perkin Elmer, 760430). MET enzme (Carna Biosciences, 08-151) at 0.625 nM was prepared with 10 mM MgCl2 and 1.5 μM substrate peptide in a buffer containing 50 mM HEPES, 1 mM EGTA, 0.01% Brij-35, 0.05% BSA, and 2 mM DTT and pre-incubated at room temperature for 30 min prior to the start of the reaction. 100 μM ATP was added to start the reaction. The mobility shift assay electrophoretically separates the fluorescently labeled peptides (substrate and phosphorylated product) following the 60 minute kinase reaction. The reaction was terminated by addition of 0.5 M EDTA. Both substrate and product were measured and the ratio of these values used to generate % conversion of substrate to product by the LabChip EZ reader (Perkin Elmer). ICso values were calculated using the inhibition of conversion ratio using Dotmatics Knowledge Solutions Studies curve fitting environment (Dotmatics, Bishops Stortford, UK, CM23) and are presented in Table 2.

MET D1228N = target: T2, MET D1228N (Homo sapiens, UniProt P08581, D1228N); assay: MET D1228N Mobility Shift Assay; settings: biochemical assay IC50; 100 μM ATP, 60 minute kinase reaction
T2 construct: purchased Signalchem M52-12IG
Experimental: as §1, with “MET D1228N” for “MET”, “a fluorescence -based” for “a fluorescence-based”, “FLPeptide30 (5-FAM-KKKKEEIYFFF -CONH2)” for “FLPeptide30 (5-FAM-KKKKEEIYFFF-CONH2)”, “MET D1228N enzyme (Signalchem, M52-12IG)” for “MET enzme (Carna Biosciences, 08-151)”, “at 0.313” for “at 0.625”

Ba/F3-TPR-MET cells = target: T3, Ba/F3-TPR-MET cells (Homo sapiens, UniProt P08581); assay: CellTiter-Glo Cell Viability Assay, Ba/F3-TPR-MET; assay type: cell-based; settings: 72 hours
T3 construct: fused on or other part: P12270 (Nucleoprotein TPR)
Experimental: (§2) Ba/F3-TPR-MET and Ba/F3-TPR-MET-D1228N cells were seeded at 3000 cells per well in a 96 well plate in 90 μL growth media and allowed to incubate overnight at 37° C. with 5% CO2. The following day, compounds were serially diluted from a 10 mM top dose for a 9-point 3-fold dilution curve in DMSO. Following a 100-fold dilution in growth media, a further 10-fold dilution was made into the cell plate for a final volume of 100 μL and 0.1% DMSO. Compounds and cells were incubated together for 72 hours at 37° C. with 5% CO2. The CellTiter-Glo® 2.0 Assay determines the number of viable cells in culture by quantifying ATP, which indicates the presence of metabolically active cells. Luminescence readout is directly proportional to the number of viable cells in culture. CellTiter-Glo reagent (Promega, G9243) and cell plates were allowed to equilibrate to room temperature for at least 15 min, then 100 μL of CellTiter-Glo was added to each well for a 1:1 ratio of reagent to media. Samples were placed on a shaker for 2 min prior to a 30 min incubation at room temperature protected from light. Luminescence was read on a Perkin Elmer Envision plate reader 2105 and used to calculate ICso values within the Dotmatics Knowledge Solutions Studies curve fitting environment (Dotmatics, Bishops Stortford, UK, CM23) and are presented in Table 2.

[1] = target: T4, Ba/F3-TPR-MET-D1228N cells (Homo sapiens, UniProt P08581, D1228N, cells depend on it); assay: CellTiter-Glo Cell Viability Assay, Ba/F3-TPR-MET-D1228N; assay type: cell-based; settings: 72 hours
T4 construct: fused on or other part: P12270 (Nucleoprotein TPR)
Experimental: as §2

T1 sequence (P08581 25-1390): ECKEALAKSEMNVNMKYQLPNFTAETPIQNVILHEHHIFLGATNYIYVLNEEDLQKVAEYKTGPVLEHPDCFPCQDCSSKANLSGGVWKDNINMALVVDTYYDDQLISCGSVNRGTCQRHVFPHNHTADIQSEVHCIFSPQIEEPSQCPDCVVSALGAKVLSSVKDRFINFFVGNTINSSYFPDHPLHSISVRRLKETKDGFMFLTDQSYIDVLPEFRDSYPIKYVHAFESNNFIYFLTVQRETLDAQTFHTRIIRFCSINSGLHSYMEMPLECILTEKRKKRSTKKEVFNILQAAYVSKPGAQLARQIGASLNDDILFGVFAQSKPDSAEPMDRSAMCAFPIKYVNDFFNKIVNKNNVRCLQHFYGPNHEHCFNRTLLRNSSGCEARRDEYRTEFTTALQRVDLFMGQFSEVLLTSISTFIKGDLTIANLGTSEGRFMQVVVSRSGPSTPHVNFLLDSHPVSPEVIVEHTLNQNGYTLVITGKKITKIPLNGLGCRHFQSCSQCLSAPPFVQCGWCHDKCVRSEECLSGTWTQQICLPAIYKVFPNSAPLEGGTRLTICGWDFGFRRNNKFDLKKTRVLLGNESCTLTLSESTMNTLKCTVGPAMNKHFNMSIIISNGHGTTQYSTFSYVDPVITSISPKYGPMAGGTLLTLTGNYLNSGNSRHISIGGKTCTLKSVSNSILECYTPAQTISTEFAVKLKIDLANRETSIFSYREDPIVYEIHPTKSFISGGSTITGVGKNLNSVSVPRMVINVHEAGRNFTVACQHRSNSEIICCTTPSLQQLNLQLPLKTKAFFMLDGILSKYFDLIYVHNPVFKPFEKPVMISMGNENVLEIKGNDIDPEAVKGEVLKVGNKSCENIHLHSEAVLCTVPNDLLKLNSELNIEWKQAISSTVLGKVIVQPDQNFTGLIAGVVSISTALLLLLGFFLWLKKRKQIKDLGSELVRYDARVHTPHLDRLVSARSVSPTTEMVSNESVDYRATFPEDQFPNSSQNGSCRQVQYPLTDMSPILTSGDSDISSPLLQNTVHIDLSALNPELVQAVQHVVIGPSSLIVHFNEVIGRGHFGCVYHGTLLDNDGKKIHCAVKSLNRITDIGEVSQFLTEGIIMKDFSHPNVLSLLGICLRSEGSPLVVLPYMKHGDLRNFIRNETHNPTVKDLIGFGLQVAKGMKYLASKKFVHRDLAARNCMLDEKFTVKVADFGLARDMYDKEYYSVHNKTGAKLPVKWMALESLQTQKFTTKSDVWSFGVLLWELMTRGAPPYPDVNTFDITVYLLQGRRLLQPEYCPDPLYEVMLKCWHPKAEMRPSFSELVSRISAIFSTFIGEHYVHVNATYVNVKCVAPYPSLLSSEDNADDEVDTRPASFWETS
T2 sequence (P08581 25-1390 D1228N): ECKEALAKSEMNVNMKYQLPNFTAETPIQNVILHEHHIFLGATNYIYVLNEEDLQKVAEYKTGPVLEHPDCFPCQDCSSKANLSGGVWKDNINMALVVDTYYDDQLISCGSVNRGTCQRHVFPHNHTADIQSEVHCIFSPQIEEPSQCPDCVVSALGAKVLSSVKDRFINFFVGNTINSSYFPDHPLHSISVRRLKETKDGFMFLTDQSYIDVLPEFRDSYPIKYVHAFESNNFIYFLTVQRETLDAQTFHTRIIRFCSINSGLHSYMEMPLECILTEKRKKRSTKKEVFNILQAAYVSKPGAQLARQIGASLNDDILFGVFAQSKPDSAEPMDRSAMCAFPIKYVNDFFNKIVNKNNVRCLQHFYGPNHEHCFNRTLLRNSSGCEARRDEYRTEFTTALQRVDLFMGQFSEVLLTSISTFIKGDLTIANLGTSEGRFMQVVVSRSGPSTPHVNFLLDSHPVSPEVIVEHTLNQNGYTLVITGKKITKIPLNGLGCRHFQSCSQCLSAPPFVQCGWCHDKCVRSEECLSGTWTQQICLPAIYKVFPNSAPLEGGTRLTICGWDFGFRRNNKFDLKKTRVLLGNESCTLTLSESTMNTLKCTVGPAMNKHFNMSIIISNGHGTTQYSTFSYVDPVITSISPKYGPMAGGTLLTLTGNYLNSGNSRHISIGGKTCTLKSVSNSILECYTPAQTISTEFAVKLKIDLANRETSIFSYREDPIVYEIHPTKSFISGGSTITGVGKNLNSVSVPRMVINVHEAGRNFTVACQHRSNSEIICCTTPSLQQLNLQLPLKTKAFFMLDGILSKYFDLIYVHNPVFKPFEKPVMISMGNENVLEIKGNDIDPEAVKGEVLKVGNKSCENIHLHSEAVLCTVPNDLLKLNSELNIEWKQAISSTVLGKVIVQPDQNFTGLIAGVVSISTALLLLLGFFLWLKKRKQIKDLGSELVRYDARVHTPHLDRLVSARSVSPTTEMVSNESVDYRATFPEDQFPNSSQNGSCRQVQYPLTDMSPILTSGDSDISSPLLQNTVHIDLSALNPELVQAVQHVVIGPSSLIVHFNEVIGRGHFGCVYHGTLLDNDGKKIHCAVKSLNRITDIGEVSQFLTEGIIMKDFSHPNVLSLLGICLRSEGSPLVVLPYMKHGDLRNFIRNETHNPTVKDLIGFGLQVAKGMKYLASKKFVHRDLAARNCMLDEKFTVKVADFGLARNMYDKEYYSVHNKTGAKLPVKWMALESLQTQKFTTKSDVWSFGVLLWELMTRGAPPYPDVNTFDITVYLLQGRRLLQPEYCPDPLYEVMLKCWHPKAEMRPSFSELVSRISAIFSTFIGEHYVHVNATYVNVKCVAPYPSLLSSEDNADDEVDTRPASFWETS
T3 sequence (P08581 whole entry, change not shown, the tested form may be a part): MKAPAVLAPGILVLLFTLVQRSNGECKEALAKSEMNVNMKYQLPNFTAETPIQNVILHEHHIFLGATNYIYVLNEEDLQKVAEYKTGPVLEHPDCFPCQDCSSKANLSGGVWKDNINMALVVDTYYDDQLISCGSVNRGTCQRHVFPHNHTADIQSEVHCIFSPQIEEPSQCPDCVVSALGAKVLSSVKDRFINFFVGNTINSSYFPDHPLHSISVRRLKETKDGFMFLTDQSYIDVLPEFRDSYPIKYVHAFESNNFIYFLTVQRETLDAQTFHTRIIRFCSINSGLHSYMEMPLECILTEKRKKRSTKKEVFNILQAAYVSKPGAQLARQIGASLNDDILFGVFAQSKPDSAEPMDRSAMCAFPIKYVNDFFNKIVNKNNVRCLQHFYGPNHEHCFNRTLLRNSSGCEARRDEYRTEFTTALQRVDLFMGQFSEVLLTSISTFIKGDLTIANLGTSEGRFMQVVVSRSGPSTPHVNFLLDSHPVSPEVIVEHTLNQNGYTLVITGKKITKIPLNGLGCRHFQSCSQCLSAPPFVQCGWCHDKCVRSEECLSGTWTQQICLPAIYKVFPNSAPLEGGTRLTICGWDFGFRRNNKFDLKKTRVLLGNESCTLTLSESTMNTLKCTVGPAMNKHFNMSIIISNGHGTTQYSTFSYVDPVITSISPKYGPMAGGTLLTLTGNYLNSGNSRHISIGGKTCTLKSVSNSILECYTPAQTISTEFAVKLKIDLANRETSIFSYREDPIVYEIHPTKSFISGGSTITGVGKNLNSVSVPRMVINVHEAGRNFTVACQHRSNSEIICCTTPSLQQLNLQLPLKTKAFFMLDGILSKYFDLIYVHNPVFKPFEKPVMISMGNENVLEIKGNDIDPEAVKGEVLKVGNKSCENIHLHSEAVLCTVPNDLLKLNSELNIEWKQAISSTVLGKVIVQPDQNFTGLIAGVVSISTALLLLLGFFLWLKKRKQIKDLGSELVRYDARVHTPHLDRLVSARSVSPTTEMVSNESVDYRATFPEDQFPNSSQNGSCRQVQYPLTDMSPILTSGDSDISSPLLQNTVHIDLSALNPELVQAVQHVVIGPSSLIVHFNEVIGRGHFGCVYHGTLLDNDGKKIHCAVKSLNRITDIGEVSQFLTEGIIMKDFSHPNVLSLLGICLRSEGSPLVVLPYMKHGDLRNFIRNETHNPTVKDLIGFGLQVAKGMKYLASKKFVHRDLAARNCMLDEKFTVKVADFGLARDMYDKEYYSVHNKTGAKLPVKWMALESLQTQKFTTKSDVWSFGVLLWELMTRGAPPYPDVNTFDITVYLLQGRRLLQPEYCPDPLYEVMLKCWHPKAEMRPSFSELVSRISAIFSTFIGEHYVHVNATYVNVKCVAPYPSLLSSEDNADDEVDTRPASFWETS

SMILES | IC50 (MET) [µM] | IC50 (MET D1228N) [µM] | EC50 (Ba/F3-TPR-MET cells) [µM] | EC50 [1] [µM]
CNCCOc1cc2nccc(Oc3c(F)cc(NC(=O)c4cnccc4OC)cc3F)c2cc1OC [Example 1, N-(3,5-difluoro-4-((6-methoxy-7-(2-(methylamino)ethoxy)quinolin-4-yl)oxy)phenyl)-4-methoxypyridine-3-carboxamide] | ≤ 0.1 | ≤ 0.1 | ≤ 0.1 | ≤ 0.1
CNCCOc1cc2nccc(Oc3c(F)cc(NC(=O)c4cc(F)c(F)cc4OC)cc3F)c2cc1OC [Example 2, N-(3,5-difluoro-4-((6-methoxy-7-(2-(methylamino)ethoxy)quinolin-4-yl)oxy)phenyl)-4,5-difluoro-2-methoxybenzamide] | ≤ 0.1 | ≤ 0.1 | 1 to 10 | 0.1 to 1
CNCCOc1cc2nccc(Oc3c(F)cc(NC(=O)c4cnc(Cl)cc4OC)cc3F)c2cc1OC [Example 3, 6-chloro-N-(3,5-difluoro-4-((6-methoxy-7-(2-(methylamino)ethoxy)quinolin-4-yl)oxy)phenyl)-4-methoxypyridine-3-carboxamide] | ≤ 0.1 | ≤ 0.1 | ≤ 0.1 | 0.1 to 1
CNCCOc1cc2nccc(Oc3c(F)cc(NC(=O)c4c(OC)ccnc4F)cc3F)c2cc1OC [Example 4, N-(3,5-difluoro-4-((6-methoxy-7-(2-(methylamino)ethoxy)quinolin-4-yl)oxy)phenyl)-2-fluoro-4-methoxypyridine-3-carboxamide] | ≤ 0.1 | ≤ 0.1 | 0.1 to 1 | 0.1 to 1
CCOc1ccncc1C(=O)Nc1cc(F)c(Oc2ccnc3cc(OCCNC)c(OC)cc23)c(F)c1 [Example 5, N-(3,5-difluoro-4-((6-methoxy-7-(2-(methylamino)ethoxy)quinolin-4-yl)oxy)phenyl)-4-ethoxypyridine-3-carboxamide] | ≤ 0.1 | ≤ 0.1 | ≤ 0.1 | ≤ 0.1
CNCCOc1cc2nccc(Oc3c(F)cc(NC(=O)c4cnccc4OC)cc3Cl)c2cc1OC [Example 6, N-(3-chloro-5-fluoro-4-((6-methoxy-7-(2-(methylamino)ethoxy)quinolin-4-yl)oxy)phenyl)-4-methoxypyridine-3-carboxamide] | ≤ 0.1 | ≤ 0.1 | 0.1 to 1 | 0.1 to 1
CNCCOc1cc2ncnc(Oc3c(F)cc(NC(=O)c4c(OC)ccnc4F)cc3F)c2cc1OC [Example 7, N-(3,5-difluoro-4-((6-methoxy-7-(2-(methylamino)ethoxy)quinazolin-4-yl)oxy)phenyl)-2-fluoro-4-methoxypyridine-3-carboxamide] | ≤ 0.1 | ≤ 0.1 | 1 to 10 | 0.1 to 1
CNCCOc1cc2ncnc(Oc3c(F)cc(NC(=O)c4cnccc4OC)cc3F)c2cc1OC [Example 8, N-(3,5-difluoro-4-((6-methoxy-7-(2-(methylamino)ethoxy)quinazolin-4-yl)oxy)phenyl)-4-methoxypyridine-3-carboxamide] | ≤ 0.1 | ≤ 0.1 | 0.1 to 1 | 0.1 to 1
CNCCOc1ccc2c(Oc3c(F)cc(NC(=O)c4c(OC)ccnc4F)cc3F)ccnc2c1 [Example 9, N-(3,5-difluoro-4-((7-(2-(methylamino)ethoxy)quinolin-4-yl)oxy)phenyl)-2-fluoro-4-methoxypyridine-3-carboxamide] | ≤ 0.1 | ≤ 0.1 | 0.1 to 1 | ≤ 0.1
CNCCOc1ccc2c(Oc3c(F)cc(NC(=O)c4cnccc4OC)cc3F)ccnc2c1 [Example 10, N-(3,5-difluoro-4-((7-(2-(methylamino)ethoxy)quinolin-4-yl)oxy)phenyl)-4-methoxypyridine-3-carboxamide] | ≤ 0.1 | ≤ 0.1 | ≤ 0.1 | ≤ 0.1
CCOc1ccncc1C(=O)Nc1cc(F)c(Oc2ccnc3cc(OCCNC)ccc23)c(F)c1 [Example 11, N-(3,5-difluoro-4-((7-(2-(methylamino)ethoxy)quinolin-4-yl)oxy)phenyl)-4-ethoxypyridine-3-carboxamide] | ≤ 0.1 | ≤ 0.1 |  | 
CNCCOc1cc2nccc(Oc3ccc(NC(=O)c4cnccc4OC)c(F)c3F)c2cc1OC [Example 14, N-(2,3-difluoro-4-((6-methoxy-7-(2-(methylamino)ethoxy)quinolin-4-yl)oxy)phenyl)-4-methoxypyridine-3-carboxamide] | ≤ 0.1 | ≤ 0.1 | 0.1 to 1 | 0.1 to 1
CNCCOc1cc2nccc(Oc3ccc(NC(=O)c4c(OC)ccnc4F)c(F)c3F)c2cc1OC [Example 15, N-(2,3-difluoro-4-((6-methoxy-7-(2-(methylamino)ethoxy)quinolin-4-yl)oxy)phenyl)-2-fluoro-4-methoxypyridine-3-carboxamide] | ≤ 0.1 | ≤ 0.1 | 0.1 to 1 | 0.1 to 1
CCOc1ccncc1C(=O)Nc1ccc(Oc2ccnc3cc(OCCNC)c(OC)cc23)c(F)c1F [Example 16, N-(2,3-difluoro-4-((6-methoxy-7-(2-(methylamino)ethoxy)quinolin-4-yl)oxy)phenyl)-4-ethoxypyridine-3-carboxamide] | ≤ 0.1 | ≤ 0.1 | 0.1 to 1 | 0.1 to 1
CCOc1ccncc1C(=O)Nc1ccc(Oc2ccnc3cc(OCCCNC)c(OC)cc23)c(F)c1F [Example 17, N-[2,3-difluoro-4-({6-methoxy-7-[3-(methylamino)propoxy]quinolin-4-yl}oxy)phenyl]-4-ethoxypyridine-3-carboxamide] | ≤ 0.1 | ≤ 0.1 | ≤ 0.1 | ≤ 0.1
CNCCCOc1cc2nccc(Oc3ccc(NC(=O)c4cnccc4OC)c(F)c3F)c2cc1OC [Example 18, N-[2,3-difluoro-4-({6-methoxy-7-[3-(methylamino)propoxy]quinolin-4-yl}oxy)phenyl]-4-methoxypyridine-3-carboxamide] | ≤ 0.1 | ≤ 0.1 | 0.1 to 1 | ≤ 0.1
CNCCOc1cc2nccc(Oc3cc(F)c(NC(=O)c4cnc(Cl)cc4OC)cc3F)c2cc1OC [Example 26, 6-chloro-N-[2,5-difluoro-4-({6-methoxy-7-[2-(methylamino)ethoxy]quinolin-4-yl}oxy)phenyl]-4-methoxypyridine-3-carboxamide] | ≤ 0.1 | ≤ 0.1 |  | 
CNCCOc1cc2nccc(Oc3ccc(NC(=O)c4cnc(N)cc4OC)c(F)c3F)c2cc1OC [Example 33, 6-amino-N-[2,3-difluoro-4-({6-methoxy-7-[2-(methylamino)ethoxy]quinolin-4-yl}oxy)phenyl]-4-methoxypyridine-3-carboxamide] | ≤ 0.1 | ≤ 0.1 |  | 
CNCCOc1cc2nccc(Oc3ccc(NC(=O)c4cnccc4OC(F)F)c(F)c3F)c2cc1OC [Example 48, N-[2,3-difluoro-4-({6-methoxy-7-[2-(methylamino)ethoxy]quinolin-4-yl}oxy)phenyl]-4-(difluoromethoxy)pyridine-3-carboxamide] | ≤ 0.1 | ≤ 0.1 |  | 
CNCCOc1cc2nccc(Oc3ccc(NC(=O)c4cnccc4OC4CC4)c(F)c3F)c2cc1OC [Example 83, 4-cyclopropoxy-N-[2,3-difluoro-4-({6-methoxy-7-[2-(methylamino)ethoxy]quinolin-4-yl}oxy)phenyl]pyridine-3-carboxamide] | ≤ 0.1 | ≤ 0.1 |  | 
